Among the data in patent US11696917B2, “Agent enhancing antitumor effect using pyrazolo[3,4-d]pyrimidine compound” (TAIHO PHARMACEUTICAL CO., LTD., priority 2017, dated 2023) are CI and Fa values, retold here.

The test system of this experiment is SK-BR-3 (human breast cancer). Description: Combination of Compound 1 and other antitumor agents (in vitro), CellTiter-Glo, median effect method. Format: cell-based. The procedure: The supplier of each reagent, the suppliers of tumor cell lines, the media used, and the numbers of cells to be inoculated are shown in the tables below.
The cells were inoculated at 20 μL/well to a 384-well culture plate (Corning Inc.). The plate inoculated with the cells were cultured in an incubator set to 37° C. and 5% CO2. On the day following inoculation, each of mixed solutions of Compound 1 and each other antitumor agent at varying combinations of concentrations was added to the cells. Specifically, 8 serial dilutions (including (0 nM)) of Compound 1 and 10 serial dilutions (including (0 nM)) of the other antitumor agent were prepared using Leibovitz's L-15 medium containing 10% FBS, or ATCC formulated RPMI-1640 medium containing 10% FBS. Drug solutions in which equal amounts of the respective serial dilutions of the compounds were dispensed were mixed at a ratio of 1:1 to prepare a total of 80 mixed drug solutions including every combination. Each of these mixed drug solutions was added at 5 μL/well (N=4) to the plate, followed by further culture for 3 days under conditions of 37° C. and 5% CO2.
Three days later, CellTiter-Glo™ 2.0 Reagent (Promega Corporation) was added thereto at 25 μL/well, and chemiluminescence was measured using a plate reader (EnSpire® Multimode Plate Reader, PerkinElmer Japan Co., Ltd.).
The enhancement of an effect by combined use of the drugs was evaluated according to a method known in the art (a method described in Trends Pharmacol. Sci., 4, 450-454, 1983 or Pharmacol Rev., 58 (3), 621-81, 2006).
An average value from 4 wells of each combination was calculated from the obtained data, and a cell survival rate normalized against a control supplemented with a medium containing a vehicle was calculated. A Fa (fraction of affect) value was calculated by subtracting the cell survival rate from 1. Median effect analysis software CalcuSyn 2.0 (CalcuSyn, Inc.) for calculation by the median effect method was used in the calculation of CI.
As for the combinations of the concentrations of both the drugs for calculating CI, a Fa value closer to 1 presumably means a concentration range in which one of the drugs had too strong an effect, and a Fa value closer to 0 presumably means a concentration range in which any of the drugs had too weak an effect. Since these concentration ranges were not appropriate for the discussion of a synergistic effect, combinations that satisfied 0.2 S Fa 0.8 were extracted from the combinations of the respective concentrations of Compound 1 and the other antitumor agent on the basis of the calculated Fa value.
An effect of combined use was determined as shown in the table below (Pharmacol Rev., 58 (3), p. 621-81, 2006).
Background: Cellular ATP, detected with luciferase, serves as a proxy for viable cell number.

Setting [1] is: Compound 1 0.412 nM + Cisplatin 6185 nM, ratio 1:15030, SK-BR-3.
Setting [2] is: Compound 1 1.24 nM + Cisplatin 6185 nM, ratio 1:5010, SK-BR-3.
Setting [3] is: Compound 1 3.70 nM + Cisplatin 687 nM, ratio 1:186, SK-BR-3.
Where [4] appears, read: Compound 1 3.70 nM + Cisplatin 2062 nM, ratio 1:557, SK-BR-3.
Setting [5] is: Compound 1 3.70 nM + Cisplatin 6185 nM, ratio 1:1670, SK-BR-3.

For `C=CC(=O)N1CCC[C@@H](n2nc(C(=O)Nc3ccc(CC(=O)N(C)C)c(C)c3C)c3c(N)ncnc32)C1` [Compound 1, (R)-1-(1-acryloylpiperidin-3-yl)-4-amino-N-(4-(2-(dimethylamino)-2-oxoethyl)-2,3-dimethylphenyl)-1H-pyrazolo[3,4-d]pyrimidine-3-carboxamide], the CI is, setting by setting: under setting [1], 0.86; under setting [2], 0.84; under setting [3], 0.78; under setting [4], 0.79; under setting [5], 0.63. Besides, the Fa runs as follows: under setting [1], 0.50; under setting [2], 0.55; under setting [3], 0.22; under setting [4], 0.37; under setting [5], 0.65.
